The values that follow come from ChEMBL document CHEMBL3611984, “Isolation and anticancer, anthelminthic, and antiviral (HIV) activity of acylphloroglucinols, and regioselective synthesis of empetrifranzinans from Hypericum roeperianum” (Bioorg Med Chem, 2015).

Series [1] has as its system HT-29. As to the kind of experiment: Cytotoxicity against human HT-29 cells assessed as growth inhibition at 125 uM after 3 days by XTT assay relative to control. The class given is functional. The following applies: HT-29, 72 h, read-out: GI. In general terms: Tetrazolium dyes change colour on reduction, which living cells bring about.
The subject of series [2] is PC-3. The experiment in a line: Cytotoxicity against human PC3 cells assessed as growth inhibition at 125 uM after 3 days by XTT assay relative to control. The following applies: PC-3, 72 h, read-out: GI. The class given is functional.
Series [3] can be described thus: Cytotoxicity against mock-infected human MT4 cells assessed as reduction in cell viability after 96 hrs by MTT assay. The class given is cell-based.
In series [4] the test system is Human immunodeficiency virus 1. As to the kind of experiment: Antiviral activity against HIV1 3B infected in human MT4 cells assessed as protection against virus-induced cytopathogenicity after 4 days by MTT assay. The class given is functional, organism-based. The following applies: Human immunodeficiency virus 1, 3B, MT4, 96 h. A general note: Damage to the host cells serves as the signal in cytopathic effect assays.

For a further series, the system named is Escherichia coli. The experiment in a line: Antibacterial activity against Escherichia coli DSM 1103. The class given is functional.
Another series concerns Staphylococcus aureus. As to the kind of experiment: Antibacterial activity against Staphylococcus aureus DSM 2569. The series is classed as functional.
The subject of the next series is Enterococcus faecalis. The experiment in a line: Antibacterial activity against Enterococcus faecalis DSM 2570. The class given is functional.
For series [5], the system named is PC-3. As to the kind of experiment: Cytotoxicity against human PC3 cells assessed as growth inhibition at 10 uM after 3 days by XTT assay relative to control. The class given is functional. The following applies: PC-3, 72 h, read-out: GI.
In series [6] the test system is PC-3. The experiment in a line: Cytotoxicity against human PC3 cells assessed as growth inhibition at 10 nM after 3 days by XTT assay relative to control. The class given is functional. The following applies: PC-3, 72 h, read-out: GI.
Series [7] has as its system HT-29. As to the kind of experiment: Cytotoxicity against human HT-29 cells assessed as growth inhibition at 10 nM after 3 days by XTT assay. The series is classed as functional, cell-based.
The test system of series [8] is Caenorhabditis elegans. As to the kind of experiment: Antihelmintic activity against Caenorhabditis elegans Bristol N2 assessed as mortality at 100 ug/ml after 30 mins by microscopic analysis (reference value: 3 +/- 3%). The class given is functional.
The subject of series [9] is Caenorhabditis elegans. The experiment in a line: Antihelmintic activity against Caenorhabditis elegans Bristol N2 assessed as mortality at 12.5 ug/ml after 30 mins by microscopic analysis. The class given is functional, organism-based.
Series [10] has as its system Caenorhabditis elegans. The experiment in a line: Antihelmintic activity against Caenorhabditis elegans Bristol N2 assessed as mortality at 10 ug/ml after 30 mins by microscopic analysis (reference value: 3 +/- 3%). The series is classed as functional, organism-based.

Active and inactive are the calls of the source. The rule behind the calls is not given here.

Consider `C[C@@H]1CC[C@@]2(OC1)O[C@H]1[C@@H](O)[C@H]3[C@@H]4CC[C@H]5C[C@@H](O[C@@H]6O[C@H](CO)[C@H](O[C@@H]7O[C@H](CO)C(O)[C@H](O[C@@H]8OC[C@@H](O)[C@H](O)[C@H]8O)[C@H]7O[C@@H]7O[C@H](CO)[C@H](O)[C@H](O[C@@H]8O[C@H](CO)[C@@H](O)[C@H](O)[C@H]8O)[C@H]7O)[C@H](O)[C@H]6O)[C@H](O)C[C@]5(C)[C@H]4CC[C@]3(C)[C@H]1[C@@H]2C` (some centres not stated) [DIGITONIN], for which the inhibition of growth at 125 µM in the series with HT-29 [1] and in the series on PC-3 [2] was 100% throughout.
Broadly, the CC50 is the concentration at which the toxic effect on the cells reaches its halfway point. As a reminder, the EC50 is the concentration that produces a half-maximal response. Broadly, the MIC is the lowest concentration found to suppress growth. As for `CCC(C)C(=O)c1c(O)cc(O)c2c1O[C@](C)(CCC=C(C)C)[C@@H](O)C2` (some centres not stated) [EMPETRIKARINOL B], in series [3], the cytotoxic concentration (CC50) at 96 h is 45 µM. For the same molecule, the half-maximal effective concentration (EC50) in series [4] was above 45 µM. Besides, the MIC in the series with Escherichia coli, with Staphylococcus aureus and in the series with Enterococcus faecalis was above 1 µg/mL in each case. Moreover, the inhibition of growth at 10 µM in the series with PC-3 [5] is below 20%. In addition, in the series on PC-3 [6], the inhibition of growth at 0.01 µM was below 20%. Further, the “growth inhibition (GI)” value with HT-29 [7] is “inactive”. The Activity in the series on Caenorhabditis elegans [8] was 0.7%. Besides, the result in the series on Caenorhabditis elegans [9] was inactive.
For the molecule `CCC(C)C(=O)c1c(O)cc(O)c(C/C=C(\C)CCC=C(C)C)c1O` (configuration not stated), the CC50 at 96 h in series [3] was 26.7 µM. The EC50 in series [4] was above 26.7 µM. In addition, the minimal inhibitory concentration (MIC) against Escherichia coli, with Staphylococcus aureus and against Enterococcus faecalis was above 1 µg/mL in each case. Further, the inhibition of growth at 10 µM with PC-3 [5] came out at 20%. The inhibition of growth at 0.01 µM in the series on PC-3 [6] was below 20%. For the same molecule, the “growth inhibition (GI)” value with HT-29 [7] is “inactive”. Further, in the series with Caenorhabditis elegans [8], the Activity was 37%. Also, the result in the series with Caenorhabditis elegans [9] was inactive.
Regarding `CC(C)C(=O)c1c(O)cc2c3c1OC1(C)CCC(C3C1)C(C)(C)O2` (configuration not stated), the CC50 at 96 h in series [3] is above 100 µM. The EC50 in series [4] is above 100 µM. The MIC in the series on Escherichia coli, against Staphylococcus aureus and against Enterococcus faecalis was above 1 µg/mL each time. In the series on PC-3 [5], the inhibition of growth at 10 µM was determined as 20%. Moreover, the inhibition of growth at 0.01 µM in the series with PC-3 [6] is below 20%. In the series with HT-29 [7], the “growth inhibition (GI)” value is “inactive”.
Regarding `CC(C)=CCC/C(C)=C/Cc1c(O)cc(O)c(C(=O)C(C)C)c1O`, in series [3], the CC50 at 96 h is above 100 µM. Also, the EC50 in [4] is above 100 µM. Also, the MIC with Escherichia coli, with Staphylococcus aureus and against Enterococcus faecalis was above 1 µg/mL each time. Besides, in the series on PC-3 [5], the inhibition of growth at 10 µM was below 20%. Further, the inhibition of growth at 0.01 µM with PC-3 [6] was below 20%. Moreover, the “growth inhibition (GI)” value in the series with HT-29 [7] is “inactive”. Moreover, the Activity in the series with Caenorhabditis elegans [8] is listed as 0.7%. In the series on Caenorhabditis elegans [9], the outcome was inactive.
As for `CC(C)=CCC/C(C)=C/Cc1c(O)cc(O)c(C(=O)c2ccccc2)c1O`, the 50% cytotoxic concentration (CC50) at 96 h in series [3] is 69 µM. Besides, in series [4], the 50% effective concentration (EC50) is above 69 µM. In addition, the MIC in the series on Escherichia coli, against Staphylococcus aureus and against Enterococcus faecalis was above 1 µg/mL each time. Also, the inhibition of growth at 10 µM in the series with PC-3 [5] is below 20%. In addition, the inhibition of growth at 0.01 µM in the series on PC-3 [6] was below 20%. For the same molecule, the “growth inhibition (GI)” value in the series on HT-29 [7] is “inactive”. For the same molecule, in the series with Caenorhabditis elegans [8], the Activity was 0.7%. In addition, the result with Caenorhabditis elegans [9] was inactive.
In the case of `CC(C)=CCCC1(C)Oc2c(c(O)cc(O)c2C(=O)C(C)C)CC1O` (configuration not stated), in series [3], the 50% cytotoxic concentration (CC50) at 96 h came to 84 µM. The EC50 in series [4] was above 84 µM. The minimum inhibitory concentration (MIC) with Escherichia coli, in the series with Staphylococcus aureus and in the series on Enterococcus faecalis was above 1 µg/mL in each case. The inhibition of growth at 10 µM with PC-3 [5] was below 20%. The inhibition of growth at 0.01 µM with PC-3 [6] is below 20%. The “growth inhibition (GI)” value with HT-29 [7] was “inactive”.
As to `CCC(C)C(=O)c1c(O)cc2c3c1OC(C)(C)C1CCC(C)(CC31)O2` (configuration not stated) [EMPETRIFRANZINAN C], the 50% cytotoxic concentration (CC50) at 96 h in series [3] is 45 µM. In [4], the EC50 is above 45 µM. Also, the MIC in the series with Escherichia coli, against Staphylococcus aureus and in the series on Enterococcus faecalis was above 1 µg/mL each time. The inhibition of growth at 10 µM in the series with PC-3 [5] came out at 20%. Moreover, the inhibition of growth at 0.01 µM with PC-3 [6] is below 20%. Also, in the series with HT-29 [7], the “growth inhibition (GI)” value is “inactive”.
Turning to `CC(C)C(=O)c1c(O)cc(O)c2c1O[C@]1(C)CC[C@@H](O)C(C)(C)[C@H]1C2` (relative stereo), in series [3], the CC50 at 96 h turned out to be 41 µM. Also, the EC50 in series [4] was above 41 µM. Moreover, the MIC against Escherichia coli, in the series on Staphylococcus aureus and against Enterococcus faecalis was above 1 µg/mL each time. In the series on PC-3 [5], the inhibition of growth at 10 µM is below 20%. In addition, the inhibition of growth at 0.01 µM in the series on PC-3 [6] was below 20%. Besides, in the series on HT-29 [7], the “growth inhibition (GI)” value is “inactive”. Moreover, the Activity with Caenorhabditis elegans [8] came to 0.7%. In addition, the outcome in the series on Caenorhabditis elegans [9] was inactive.
As for `c1ccc2[nH]c(-c3cscn3)nc2c1` [THIABENDAZOLE], in the series on Caenorhabditis elegans [8], the Activity is on record as 19%.
`CCC(C)C(=O)c1c(O)cc2c3c1OC1(C)CCC(C3C1)C(C)(C)O2` (configuration not stated): the 50% cytotoxic concentration (CC50) at 96 h in series [3] is above 100 µM. In addition, in [4], the EC50 was above 100 µM. In addition, the MIC against Escherichia coli, in the series on Staphylococcus aureus and in the series on Enterococcus faecalis was above 1 µg/mL in each case. The inhibition of growth at 10 µM with PC-3 [5] is below 20%. Besides, in the series on PC-3 [6], the inhibition of growth at 0.01 µM is below 20%. For the same molecule, in the series on HT-29 [7], the “growth inhibition (GI)” value was “inactive”.
IVERMECTIN: the Activity with Caenorhabditis elegans [10] amounted to 99%.
In the case of `CC(C)C(=O)c1c(O)cc2c3c1OC(C)(C)C1CCC(C)(CC31)O2` (configuration not stated), in [3], the cytotoxic concentration (CC50) at 96 h was 18.7 µM.
